For the test, the target named is T1, GPR40 (Homo sapiens, UniProt O14842).
T1 construct: expressed in transfected cells; host or cells: HEK293 cells stably expressing GPR40 (Hygromycin selection)
Briefly: IP1 accumulation assay in HEK293 cells stably expressing GPR40. It counts as cell-based. An outline of the steps:
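HEK293 cells stably expressing human GPR40 were incubated with compounds (10-point, 3-fold dilution series) for 2 h at 37 °C, then IP1 was detected by HTRF (665/615 nm ratio). Effect was normalised to DMSO blank and AMG-1638 as 100%, and EC50 was derived from dose curves.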

Where [1] appears, read: IP1 accumulation, HEK293 cells stably expressing GPR40, 2 hours at 37° C., % effect relative to AMG-1638, table of Biological Example 1.
[2] abbreviates: Tables A-1a to A-7b (structure-property relationship), obtained by methods of Biological Example 1.
Setting [3] is: Table A-8 (additional examples), obtained by methods of Biological Example 1.

T1 sequence (O14842 whole entry): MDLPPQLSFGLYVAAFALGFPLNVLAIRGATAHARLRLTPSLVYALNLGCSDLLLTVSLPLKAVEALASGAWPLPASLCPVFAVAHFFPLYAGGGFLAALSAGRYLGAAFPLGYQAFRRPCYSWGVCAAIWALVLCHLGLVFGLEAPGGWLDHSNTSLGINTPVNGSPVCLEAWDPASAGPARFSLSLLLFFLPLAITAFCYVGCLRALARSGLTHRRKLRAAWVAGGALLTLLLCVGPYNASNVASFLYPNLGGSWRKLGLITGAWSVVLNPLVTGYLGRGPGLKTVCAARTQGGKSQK

Turning to `C[C@H](C(=O)O)[C@H](c1ccc2c(c1)O[C@@H](C1CCN(Cc3cc(-n4cc(CCCCCCCCCCCCCCCCCC(=O)NCCCN(C)CC(=O)NCCN)nn4)ccc3OC(F)(F)F)CC1)CC2)C1CC1` [Example 145], the midpoint of the response under setting [1], the EC50, lay at 0.19 nM.

Regarding `COc1ccc(C(=O)N(CC(C)(C)CCCCCCn2cc(CCCCCCCCCCC(=O)NCC[N+](C)(CCC(=O)NCCN)CCC(=O)NCCN)nn2)c2cccc(C)n2)c(N2CCC(COc3cc([C@@H](CC(=O)O)C4CC4)ccn3)CC2)c1` [Example 54], the EC50 runs as follows: under setting [1], 1.71 nM; under setting [2], 1.71 nM.

Take `COc1ccc(F)c(-c2ccc(COc3cccc([C@@H](CC(=O)O)C4CC4)c3)cc2CC(C)(C)Cn2cc(CCCCCCCCCCCCCCCC(=O)NCC[N+](C)(CCC(=O)NCCN)CCC(=O)NCCN)nn2)c1` [Example 188]: the EC50 reads like this: under setting [1], 1.53 nM; under setting [3], 1.53 nM; under setting [2], 1.53 nM.

For the compound `C[C@H](C(=O)O)[C@H](c1ccc2c(c1)O[C@@H](C1CCN(Cc3cc(-n4cc(CCCCCCCCCCCCCCC(=O)NCC[N+](C)(CCC(=O)NCCN)CCC(=O)NCCN)nn4)ccc3OC(F)(F)F)CC1)CC2)C1CC1` [Example 72], the EC50 runs as follows: under setting [1], 6.74 nM; under setting [2], 6.74 nM.

For `C[C@H](C(=O)O)[C@H](c1ccc2c(c1)O[C@@H](C1CCN(Cc3cc(-n4cc(CCCCCCCCCC(=O)NCCN(CCC(=O)NCCN)CCC(=O)NCCN)nn4)ccc3OC(F)(F)F)CC1)CC2)C1CC1` [Example 193], the EC50 is, setting by setting: under setting [1], 413 nM; under setting [3], 413 nM; under setting [2], 413 nM.

As for `COc1ccc(F)c(-c2ccc(COc3cccc([C@@H](CC(=O)O)C4CC4)c3)cc2CC(C)(C)Cn2cc(CCCCC(=O)NCCC[N+](C)(CC(=O)[O-])CC(=O)O)nn2)c1` (stereo partly shown) [Example 213], the concentration giving a half-maximal response (EC50) under setting [1] stood at 358 nM.

Consider `COc1ccc(C(=O)N(CC(C)(C)CCCCCCn2cc(CCCCCCCCCCCCCC(=O)NCC[N+](C)(CCC(=O)NCCN)CCC(=O)NCCN)nn2)c2cccc(C)n2)c(N2CCC(COc3cc([C@@H](CC(=O)O)C4CC4)ccn3)CC2)c1` [Example 190], for which the EC50 stood at 0.05 nM under setting [1] and 0.05 nM under setting [2].

For the compound `COc1ccc(C(=O)N(CC(C)(C)CCCCCCn2cc(CCCCCCCCCCCCC(=O)NCC[N+](C)(CC(=O)NCCN)CC(=O)NCCN)nn2)c2cccc(C)n2)c(N2CCC(COc3cc([C@@H](CC(=O)O)C4CC4)ccn3)CC2)c1` [Example 61], the half-maximal effective concentration (EC50) under setting [1] was 0.23 nM.

`COc1ccc(F)c(-c2ccc(COc3cccc([C@@H](CC(=O)O)C4CC4)c3)cc2C(C)(C)c2cn(CCCCCCCCCCCC(=O)NCC[N+](C)(CCC(=O)NCCN)CCC(=O)NCCN)nn2)c1` [Example 87]: under setting [1], the EC50 was above 2700 nM.

In the case of `COc1ccc(F)c(-c2ccc(COc3cccc([C@@H](CC(=O)O)C4CC4)c3)cc2C(C)(C)c2cn(CCCCCCCCCCCCCCCCCC(=O)NCC[N+](C)(CCC(=O)NCCN)CCC(=O)NCCN)nn2)c1` [Example 11], it took 20.3 nM to reach a half-maximal effect under setting [1] (EC50).

For `COc1ccc(F)c(-c2ccc(COc3cccc([C@@H](CC(=O)O)C4CC4)c3)cc2CC(C)(C)Cn2cc(COCCOCCOCCOCC(=O)NCC[N+](C)(CCC(=O)NCCN)CCC(=O)NCCN)nn2)c1` [Example 169], the EC50 reads like this: under setting [1], above 10000 nM; under setting [3], above 10000 nM.

`COc1ccc(C(=O)N(CC(C)(C)CCCCCCn2cc(CCCCCCCCCCCCCCCCCC(=O)NCC[N+](C)(C)CCCS(=O)(=O)[O-])nn2)c2cccc(C)n2)c(N2CCC(COc3cc([C@@H](CC(=O)O)C4CC4)ccn3)CC2)c1` [Example 73] came in with an EC50 under setting [1] of 0.1 nM. In other words, the sub-nanomolar range.

The compound `COc1ccc(F)c(-c2ccc(COc3cccc([C@@H](CC(=O)O)C4CC4)c3)cc2CC(C)(C)Cn2cc(CCCCCCCCCCCCCCCCCC(=O)NCCCN(CC(=O)NCCN)CC(=O)NCCN)nn2)c1` [Example 154] came in with an EC50 under setting [1] of 1.04 nM.

As for `COc1ccc(C(=O)N(CC(C)(C)CCn2cc(CCCCCCCCC(=O)NCCN(CCC(=O)NCCN)CCC(=O)NCCN)nn2)c2cccc(C)n2)c(N2CCC(COc3cc([C@@H](CC(=O)O)C4CC4)ccn3)CC2)c1` [Example 110], the EC50 reads like this: under setting [1], 618 nM; under setting [2], 618 nM.

Take `COc1ccc(F)c(-c2ccc(COc3cccc([C@@H](CC(=O)O)C4CC4)c3)cc2CC(C)(C)Cn2cc(CCCCCCCCCCCCCCCC(=O)NCCN(CCC(=O)NCCN)CCC(=O)NCCN)nn2)c1` [Example 187]: the half-maximal effective concentration (EC50) reads like this: under setting [1], 1.34 nM; under setting [3], 1.34 nM; under setting [2], 1.34 nM.

For `COc1ccc(C(=O)N(CC(C)(C)CCn2cc(CCCCCCCCCCCCCCCC(=O)NCC[N+](C)(CCC(=O)NCCN)CCC(=O)NCCN)nn2)c2cccc(C)n2)c(N2CCC(COc3cc([C@@H](CC(=O)O)C4CC4)ccn3)CC2)c1` [Example 202], a half-maximal effect under setting [1] (EC50) was put at 0.16 nM, the EC50 under setting [3] is 0.16 nM and the EC50 under setting [2] worked out at 0.16 nM.

As for `C[C@H](C(=O)O)[C@H](c1ccc2c(c1)O[C@@H](C1CCN(Cc3cc(-c4cn(CCCCCCCCCC(=O)NCCN(CCC(=O)NCCN)CCC(=O)NCCN)nn4)ccc3OC(F)(F)F)CC1)CC2)C1CC1` [Example 77], the midpoint of the response under setting [1], the EC50, lay at 8400 nM and the EC50 under setting [2] is above 10000 nM.

On to `COc1ccc(C(=O)N(CC(C)(C)CCn2cc(CCCCCCCCCCCCC(=O)NCCN(CCC(=O)NCCN)CCC(=O)NCCN)nn2)c2cccc(C)n2)c(N2CCC(COc3cc([C@@H](CC(=O)O)C4CC4)ccn3)CC2)c1` [Example 114], for which the EC50 reads like this: under setting [1], 0.42 nM; under setting [3], 0.42 nM; under setting [2], 0.42 nM.

Regarding `COc1ccc(C(=O)N(CC(C)(C)CCn2cc(CCCCCCCCCCC(=O)NCCN(CCC(=O)NCCN)CCC(=O)NCCN)nn2)c2cccc(C)n2)c(N2CCC(COc3cc([C@@H](CC(=O)O)C4CC4)ccn3)CC2)c1` [Example 112], the concentration for a half-maximal effect (EC50) is, setting by setting: under setting [1], 14.9 nM; under setting [2], 14.9 nM.

Consider `COc1ccc(C(=O)N(CC(C)(C)CCn2cc(CCCCCCCCCCCCCC(=O)NCCC[N+](C)(CC(=O)[O-])CC(=O)O)nn2)c2cccc(C)n2)c(N2CCC(COc3cc([C@@H](CC(=O)O)C4CC4)ccn3)CC2)c1` (stereo partly shown) [Example 129], for which the EC50 is, setting by setting: under setting [1], 0.88 nM; under setting [2], 0.88 nM.

In the case of `COc1ccc(C(=O)N(CC(C)(C)CCn2cc(COCCOCCOCC(=O)NCC[N+](C)(CCC(=O)NCCN)CCC(=O)NCCN)nn2)c2cccc(C)n2)c(N2CCC(COc3cc([C@@H](CC(=O)O)C4CC4)ccn3)CC2)c1` [Example 162], the EC50 was 1250 nM under setting [1] and 1250 nM under setting [3].

`COc1ccc(C(=O)N(CC(C)(C)CCn2cc(CCCCC(=O)NCCN(CCC(=O)NCCN)CCC(=O)NCCN)nn2)c2cccc(C)n2)c(N2CCC(COc3cc([C@@H](CC(=O)O)C4CC4)ccn3)CC2)c1` [Example 195] showed an EC50 under setting [1] above 10000 nM.

On to `COc1ccc(F)c(-c2ccc(COc3cccc([C@@H](CC(=O)O)C4CC4)c3)cc2CC(C)(C)Cn2cc(CCCCCCCCCCCCC(=O)NCC[N+](C)(CCC(=O)NCCN)CCC(=O)NCCN)nn2)c1` [Example 17], for which the EC50 stood at 152 nM under setting [1], 169 nM under setting [3] and 152 nM under setting [2].

As to `COc1ccc(F)c(-c2ccc(COc3cccc([C@@H](CC(=O)O)C4CC4)c3)cc2CC(C)(C)Cn2cc(CCCCCCCCCCCCCCCCCC(=O)NCC[N+](C)(CCC(=O)NCCN)CCC(=O)NCCN)nn2)c1` [Example 19], the EC50 by setting is: under setting [1], 1.66 nM; under setting [2], 1.66 nM.

For the compound `COc1ccc(C(=O)N(CC(C)(C)CCCCCCn2cc(CCCCCCCCC(=O)NCC[N+](C)(CCC(=O)NCCN)CCC(=O)NCCN)nn2)c2cccc(C)n2)c(N2CCC(COc3cc([C@@H](CC(=O)O)C4CC4)ccn3)CC2)c1` [Example 53], the EC50 is, setting by setting: under setting [1], 3.18 nM; under setting [2], 3.81 nM.

With `COc1ccc(C(=O)N(CC(C)(C)CCn2cc(CCCCCCCCCCCC(=O)NCCC[N+](C)(CC(=O)[O-])CC(=O)O)nn2)c2cccc(C)n2)c(N2CCC(COc3cc([C@@H](CC(=O)O)C4CC4)ccn3)CC2)c1` (stereo partly shown) [Example 127], the EC50 reads like this: under setting [1], 6.36 nM; under setting [2], 6.36 nM.

As for `COc1ccc(C(=O)N(CC(C)(C)CCCCCCn2cc(CCCCCCCCC(=O)NCCC[N+](C)(CC(=O)[O-])CC(=O)O)nn2)c2cccc(C)n2)c(N2CCC(COc3cc([C@@H](CC(=O)O)C4CC4)ccn3)CC2)c1` (stereo partly shown) [Example 207], under setting [1], the midpoint of the response, the EC50, lay at 20.5 nM.

`CCCCCNC(=O)CCCCCCCCCCCCCCCCCc1cn(CC(C)(C)Cc2cc(COc3cccc([C@@H](CC(=O)O)C4CC4)c3)ccc2-c2cc(OC)ccc2F)nn1` [Example 76] displayed an EC50 under setting [1] of 112 nM.

Consider `COc1ccc(C(=O)N(CC(C)(C)CCn2cc(CCCCCCCCCCCCCC(=O)NCC[N+](C)(CCC(=O)NCCN)CCC(=O)NCCN)nn2)c2cccc(C)n2)c(N2CCC(COc3cc([C@@H](CC(=O)O)C4CC4)ccn3)CC2)c1` [Example 117], for which the EC50 by setting is: under setting [1], 0.29 nM; under setting [2], 0.29 nM.

For the compound `COc1ccc(C(=O)N(CC(C)(C)CCn2cc(CCCCCCCCCCCCC(=O)NCC[N+](C)(CCC(=O)NCCN)CCC(=O)NCCN)nn2)c2cccc(C)n2)c(N2CCC(COc3cc([C@@H](CC(=O)O)C4CC4)ccn3)CC2)c1` [Example 115], the EC50 runs as follows: under setting [1], 0.51 nM; under setting [3], 0.51 nM; under setting [2], 0.51 nM.

As for `COc1ccc(F)c(-c2ccc(COc3cccc([C@@H](CC(=O)O)C4CC4)c3)cc2CC(C)(C)Cc2cn(CCCCCCCCCCCCCCCCCC(=O)NCCN(CCC(=O)NCCN)CCC(=O)NCCN)nn2)c1` [Example 23], the EC50 by setting is: under setting [1], 0.96 nM; under setting [2], 0.96 nM.

In turn, `COc1ccc(F)c(-c2ccc(COc3cccc([C@@H](CC(=O)O)C4CC4)c3)cc2C(C)(C)c2cn(CCCCCCCCCC(=O)NCCN(CCC(=O)NCCN)CCC(=O)NCCN)nn2)c1` [Example 134] gave an EC50 under setting [1] of 3600 nM.

Take `COc1ccc(C(=O)N(CC(C)(C)CCCCCCCCCCCCCCCCCCCC(=O)NCCN(CC(=O)NCCN)CC(=O)NCCN)c2cccc(C)n2)c(N2CCC(COc3cc([C@@H](CC(=O)O)C4CC4)ccn3)CC2)c1` [Example 64]: a half-maximal response under setting [1] (EC50) required 0.68 nM.

These data come from patent US20250223281A1, “ANTIDIABETIC COMPOUNDS AND COMPOSITIONS” (REZUBIO PHARMACEUTICALS CO., LTD, priority 2022, published 2025).
